Results: patent publication US20250186405A1, “Compound For Use In Treating Narcolepsy” (Alkermes, Inc., priority 2023, published 2025)

Test system: healthy adult subjects
Assay: Part 2 MAD: treatment-emergent adverse events, once daily for 10 days (N = 6 per dose)
Assay type: in vivo, human
Text: Part 2 of the study is a MAD evaluation in healthy subjects consisting of 4 cohorts: Cohorts 1-4 received powder-in-capsule or matching placebo. Dose levels were as follows:
Safety assessments were made. A plasma PK sample was collected pre-dose on Day 8.

CS(=O)(=O)N[C@H]1CCCN2C(=O)COc3ccccc3C3CCC(CC3)OCC12 (stereo partly drawn) [Compound A, N-[(4S,4aR,7α,10α)-1,2,3,4,4a,5,7,8,9,10,16,17-dodecahydro-17-oxo-7,10-ethanopyrido[1,2-d][1,7,4]benzodioxaazacyclotridecin-4-yl]methanesulfonamide]
AE Leading to Study Drug Discontinuation (3 mg): 0 n
Any SAEs (3 mg): 0 n
Any TEAE (3 mg): 2 n
Death (3 mg): 0 n
TEAE Abdominal pain (3 mg): 0 n
TEAE Abdominal pain lower (3 mg): 0 n
TEAE Abnormal dreams (3 mg): 1 n
TEAE Back pain (3 mg): 0 n
TEAE Balance disorder (3 mg): 0 n
TEAE Blood pressure systolic increased (3 mg): 0 n
TEAE Cough (3 mg): 1 n
TEAE Depressed mood (3 mg): 0 n
TEAE Diarrhoea (3 mg): 0 n
TEAE Dizziness (3 mg): 0 n
TEAE Euphoric mood (3 mg): 0 n
TEAE Feeling of relaxation (3 mg): 0 n
TEAE Headache (3 mg): 0 n
TEAE Hypervigilance (3 mg): 0 n
TEAE Insomnia (3 mg): 0 n
TEAE Nocturia (3 mg): 0 n
TEAE Photophobia (3 mg): 0 n
TEAE Pollakiuria (3 mg): 0 n
TEAE Salivary hypersecretion (3 mg): 0 n
TEAE Visual impairment (3 mg): 0 n
TEAE Vomiting (3 mg): 0 n
TEAE by Highest Relationship: Not Related (3 mg): 2 n
TEAE by Highest Relationship: Related (3 mg): 0 n
TEAE by Highest Severity: Mild (3 mg): 2 n
TEAE by Highest Severity: Moderate (3 mg): 0 n
TEAE by Highest Severity: Severe (3 mg): 0 n
AE Leading to Study Drug Discontinuation (8 mg): 0 n
Any SAEs (8 mg): 0 n
Any TEAE (8 mg): 5 n
Death (8 mg): 0 n
TEAE Abdominal pain (8 mg): 1 n
TEAE Abdominal pain lower (8 mg): 1 n
TEAE Abnormal dreams (8 mg): 0 n
TEAE Back pain (8 mg): 0 n
TEAE Balance disorder (8 mg): 0 n
TEAE Blood pressure systolic increased (8 mg): 0 n
TEAE Cough (8 mg): 0 n
TEAE Depressed mood (8 mg): 1 n
TEAE Diarrhoea (8 mg): 2 n
TEAE Dizziness (8 mg): 0 n
TEAE Euphoric mood (8 mg): 0 n
TEAE Feeling of relaxation (8 mg): 0 n
TEAE Headache (8 mg): 0 n
TEAE Hypervigilance (8 mg): 1 n
TEAE Insomnia (8 mg): 2 n
TEAE Nocturia (8 mg): 1 n
TEAE Photophobia (8 mg): 1 n
TEAE Pollakiuria (8 mg): 0 n
TEAE Salivary hypersecretion (8 mg): 0 n
TEAE Visual impairment (8 mg): 0 n
TEAE Vomiting (8 mg): 1 n
TEAE by Highest Relationship: Not Related (8 mg): 3 n
TEAE by Highest Relationship: Related (8 mg): 2 n
TEAE by Highest Severity: Mild (8 mg): 4 n
TEAE by Highest Severity: Moderate (8 mg): 1 n
TEAE by Highest Severity: Severe (8 mg): 0 n
AE Leading to Study Drug Discontinuation (15 mg): 0 n
Any SAEs (15 mg): 0 n
Any TEAE (15 mg): 3 n
Death (15 mg): 0 n
TEAE Abdominal pain (15 mg): 0 n
TEAE Abdominal pain lower (15 mg): 0 n
TEAE Abnormal dreams (15 mg): 0 n
TEAE Back pain (15 mg): 0 n
TEAE Balance disorder (15 mg): 0 n
TEAE Blood pressure systolic increased (15 mg): 0 n
TEAE Cough (15 mg): 0 n
TEAE Depressed mood (15 mg): 0 n
TEAE Diarrhoea (15 mg): 0 n
TEAE Dizziness (15 mg): 3 n
TEAE Euphoric mood (15 mg): 0 n
TEAE Feeling of relaxation (15 mg): 0 n
TEAE Headache (15 mg): 1 n
TEAE Hypervigilance (15 mg): 0 n
TEAE Insomnia (15 mg): 1 n
TEAE Nocturia (15 mg): 0 n
TEAE Photophobia (15 mg): 0 n
TEAE Pollakiuria (15 mg): 1 n
TEAE Salivary hypersecretion (15 mg): 0 n
TEAE Visual impairment (15 mg): 2 n
TEAE Vomiting (15 mg): 0 n
TEAE by Highest Relationship: Not Related (15 mg): 0 n
TEAE by Highest Relationship: Related (15 mg): 3 n
TEAE by Highest Severity: Mild (15 mg): 3 n
TEAE by Highest Severity: Moderate (15 mg): 0 n
TEAE by Highest Severity: Severe (15 mg): 0 n
AE Leading to Study Drug Discontinuation (25 mg): 1 n
Any SAEs (25 mg): 0 n
Any TEAE (25 mg): 5 n
Death (25 mg): 0 n
TEAE Abdominal pain (25 mg): 0 n
TEAE Abdominal pain lower (25 mg): 0 n
TEAE Abnormal dreams (25 mg): 0 n
TEAE Back pain (25 mg): 1 n
TEAE Balance disorder (25 mg): 1 n
TEAE Blood pressure systolic increased (25 mg): 1 n
TEAE Cough (25 mg): 0 n
TEAE Depressed mood (25 mg): 0 n
TEAE Diarrhoea (25 mg): 0 n
TEAE Dizziness (25 mg): 3 n
TEAE Euphoric mood (25 mg): 1 n
TEAE Feeling of relaxation (25 mg): 1 n
TEAE Headache (25 mg): 0 n
TEAE Hypervigilance (25 mg): 0 n
TEAE Insomnia (25 mg): 3 n
TEAE Nocturia (25 mg): 0 n
TEAE Photophobia (25 mg): 0 n
TEAE Pollakiuria (25 mg): 2 n
TEAE Salivary hypersecretion (25 mg): 1 n
TEAE Visual impairment (25 mg): 1 n
TEAE Vomiting (25 mg): 0 n
TEAE by Highest Relationship: Not Related (25 mg): 0 n
TEAE by Highest Relationship: Related (25 mg): 5 n
TEAE by Highest Severity: Mild (25 mg): 4 n
TEAE by Highest Severity: Moderate (25 mg): 1 n
TEAE by Highest Severity: Severe (25 mg): 0 n
AE Leading to Study Drug Discontinuation (Total (N = 24)): 1 n
Any SAEs (Total (N = 24)): 0 n
Any TEAE (Total (N = 24)): 15 n
Death (Total (N = 24)): 0 n
TEAE Abdominal pain (Total (N = 24)): 1 n
TEAE Abdominal pain lower (Total (N = 24)): 1 n
TEAE Abnormal dreams (Total (N = 24)): 1 n
TEAE Back pain (Total (N = 24)): 1 n
TEAE Balance disorder (Total (N = 24)): 1 n
TEAE Blood pressure systolic increased (Total (N = 24)): 1 n
TEAE Cough (Total (N = 24)): 1 n
TEAE Depressed mood (Total (N = 24)): 1 n
TEAE Diarrhoea (Total (N = 24)): 2 n
TEAE Dizziness (Total (N = 24)): 6 n
TEAE Euphoric mood (Total (N = 24)): 1 n
TEAE Feeling of relaxation (Total (N = 24)): 1 n
TEAE Headache (Total (N = 24)): 1 n
TEAE Hypervigilance (Total (N = 24)): 1 n
TEAE Insomnia (Total (N = 24)): 6 n
TEAE Nocturia (Total (N = 24)): 1 n
TEAE Photophobia (Total (N = 24)): 1 n
TEAE Pollakiuria (Total (N = 24)): 3 n
TEAE Salivary hypersecretion (Total (N = 24)): 1 n
TEAE Visual impairment (Total (N = 24)): 3 n
TEAE Vomiting (Total (N = 24)): 1 n
TEAE by Highest Relationship: Not Related (Total (N = 24)): 5 n
TEAE by Highest Relationship: Related (Total (N = 24)): 10 n
TEAE by Highest Severity: Mild (Total (N = 24)): 13 n
TEAE by Highest Severity: Moderate (Total (N = 24)): 2 n
TEAE by Highest Severity: Severe (Total (N = 24)): 0 n
Tolerability (multiple doses 3 to 25 mg once daily for 10 days): well tolerated
